Results as given in patent US8673347B2 (Creabilis Therapeutics S.p.A., priority 2005, dated 2014).
Read-outs that look alike come from different tables or passages of the source.

How the values were obtained:
[1] = test system: transplanted psoriatic plaques; details: 2 weeks of therapy, double-blinded, placebo-controlled; cited from earlier work
protein kinase C (PKC) = details: cited from earlier work
[2] = PK study in mice, repeated dermal administration; type: in vivo; details: repeated dermal QD for 5 days, 1.03 mg/kg (about 2 μmol/kg), t = 3 h after last administration
Method: (§1) At each sampling time, approximately 0.4 mL blood samples were collected from the ventral aorta of each animal using an insulin syringe, under deep ether anesthesia, and transferred into polyethylene Eppendorf tubes containing 50 μL of 5% EDTA water solution to prevent blood clotting. Blood samples were kept in ice until centrifugation at 1400 g for 5 min. in a refrigerated centrifuge (2-4° C.). From each tube plasma samples were then recovered, put in new Eppendorf tubes and frozen at −20° C. which until the HPLC analysis.

[3] = Dermal absorption study in mice of K-252a versus K-252a-PEG; type: in vivo; details: male, Balb/C, mouse, plasma, topical, 3 mg/kg dermal
Method: The experiment was performed using a dose of active agent in both preparation of 3 mg/kg. For the present study, three subsequent experiments have been performed in vivo using each time 6 Balb/C male mice purchased from Charles River (Calco, Italy). The mice were subdivided in the following experimental groups (two animals per group): • Group 1: The mice were treated with 3 mg/kg of K-252-a, by dermal administration and sacrificed after 30 minutes. • Group 2: The mice were treated with 3 mg/kg of K-252-a by dermal administration and sacrificed after 60 minutes. • Group 3: The mice were treated with 3 mg/kg of K-252-a-PEG(2K) of Example 1 by dermal administration and sacrificed after 60 minutes.
The oil-based preparations are in form of emulsions which are rendered homogeneous by repeated sonication. […] The applied emulsion was gently massaged on the back of the mice to favor the absorption. The mice were then sacrificed respectively after 30 or 60 minutes under ether anaesthesia and the blood was collected from the ventral aorta with the insulin syringe (approx. 1 mL/animal). […] The blood samples were then centrifugated at 2000 g for 5 minutes in a refrigerated (4° C.) centrifuge, purified by solid phase extraction (SPE) and subsequently analyzed through HPLC quantitative analysis (RT-HPLC analysis with)(Terra C18 column, eluent water/ACN). […]

MER = MER (Homo sapiens, UniProt Q12866); experiment: Kinase inhibition profile; type: biochemical; details: 200 nM; read-out: inhibitory activity
Method: (§2) The preparation of CT327 and the reference compounds was conducted following a similar procedure. CT327 also was tested at a concentration of 200 nM.
(§3) The inhibitory activity of CT327 against the tested tyrosine kinase and serine/threonine kinases is shown in the Table a and b, respectively, reported in FIG. 9b.

TYK2 = TYK2 (Homo sapiens, UniProt P29597); experiment: Kinase inhibition profile; type: biochemical; details: 200 nM; read-out: inhibitory activity
Sequence of TYK2 (P29597 whole entry, species assumed): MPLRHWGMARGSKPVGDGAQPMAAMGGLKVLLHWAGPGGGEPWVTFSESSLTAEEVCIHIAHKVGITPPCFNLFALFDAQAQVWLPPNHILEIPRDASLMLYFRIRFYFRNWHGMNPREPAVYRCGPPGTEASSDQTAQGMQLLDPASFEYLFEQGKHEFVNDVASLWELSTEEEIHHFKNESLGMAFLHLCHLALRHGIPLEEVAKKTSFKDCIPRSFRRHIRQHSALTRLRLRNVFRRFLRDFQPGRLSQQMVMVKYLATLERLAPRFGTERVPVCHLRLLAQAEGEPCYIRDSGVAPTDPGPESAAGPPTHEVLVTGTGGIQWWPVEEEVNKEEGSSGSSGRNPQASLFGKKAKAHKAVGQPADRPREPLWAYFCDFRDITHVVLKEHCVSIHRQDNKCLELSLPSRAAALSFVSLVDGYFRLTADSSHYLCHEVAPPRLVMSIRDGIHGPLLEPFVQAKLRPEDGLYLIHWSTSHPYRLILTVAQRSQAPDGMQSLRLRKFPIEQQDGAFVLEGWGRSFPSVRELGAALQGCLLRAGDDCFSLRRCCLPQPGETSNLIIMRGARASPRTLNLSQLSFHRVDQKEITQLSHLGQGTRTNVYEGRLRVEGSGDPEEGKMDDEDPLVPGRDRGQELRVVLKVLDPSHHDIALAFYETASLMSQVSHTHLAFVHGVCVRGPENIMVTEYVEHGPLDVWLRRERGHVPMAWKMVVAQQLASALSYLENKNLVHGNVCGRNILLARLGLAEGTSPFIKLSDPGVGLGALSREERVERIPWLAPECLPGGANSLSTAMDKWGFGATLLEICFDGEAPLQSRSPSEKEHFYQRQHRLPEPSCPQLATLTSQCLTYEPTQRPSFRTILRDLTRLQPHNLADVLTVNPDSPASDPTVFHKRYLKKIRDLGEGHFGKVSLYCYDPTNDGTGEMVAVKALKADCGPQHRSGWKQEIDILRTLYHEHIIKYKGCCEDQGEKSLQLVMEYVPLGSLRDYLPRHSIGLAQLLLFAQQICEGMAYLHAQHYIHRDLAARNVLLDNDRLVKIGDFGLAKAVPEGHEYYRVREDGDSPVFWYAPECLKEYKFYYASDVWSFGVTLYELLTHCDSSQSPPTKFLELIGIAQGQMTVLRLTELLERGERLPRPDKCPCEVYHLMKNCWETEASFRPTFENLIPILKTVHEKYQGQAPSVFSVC
Method: as §2, §3

JAK1 = JAK1 (Homo sapiens, UniProt P23458); experiment: Kinase inhibition profile; type: biochemical; details: 200 nM; read-out: inhibitory activity
Sequence of JAK1 (P23458 whole entry, species assumed): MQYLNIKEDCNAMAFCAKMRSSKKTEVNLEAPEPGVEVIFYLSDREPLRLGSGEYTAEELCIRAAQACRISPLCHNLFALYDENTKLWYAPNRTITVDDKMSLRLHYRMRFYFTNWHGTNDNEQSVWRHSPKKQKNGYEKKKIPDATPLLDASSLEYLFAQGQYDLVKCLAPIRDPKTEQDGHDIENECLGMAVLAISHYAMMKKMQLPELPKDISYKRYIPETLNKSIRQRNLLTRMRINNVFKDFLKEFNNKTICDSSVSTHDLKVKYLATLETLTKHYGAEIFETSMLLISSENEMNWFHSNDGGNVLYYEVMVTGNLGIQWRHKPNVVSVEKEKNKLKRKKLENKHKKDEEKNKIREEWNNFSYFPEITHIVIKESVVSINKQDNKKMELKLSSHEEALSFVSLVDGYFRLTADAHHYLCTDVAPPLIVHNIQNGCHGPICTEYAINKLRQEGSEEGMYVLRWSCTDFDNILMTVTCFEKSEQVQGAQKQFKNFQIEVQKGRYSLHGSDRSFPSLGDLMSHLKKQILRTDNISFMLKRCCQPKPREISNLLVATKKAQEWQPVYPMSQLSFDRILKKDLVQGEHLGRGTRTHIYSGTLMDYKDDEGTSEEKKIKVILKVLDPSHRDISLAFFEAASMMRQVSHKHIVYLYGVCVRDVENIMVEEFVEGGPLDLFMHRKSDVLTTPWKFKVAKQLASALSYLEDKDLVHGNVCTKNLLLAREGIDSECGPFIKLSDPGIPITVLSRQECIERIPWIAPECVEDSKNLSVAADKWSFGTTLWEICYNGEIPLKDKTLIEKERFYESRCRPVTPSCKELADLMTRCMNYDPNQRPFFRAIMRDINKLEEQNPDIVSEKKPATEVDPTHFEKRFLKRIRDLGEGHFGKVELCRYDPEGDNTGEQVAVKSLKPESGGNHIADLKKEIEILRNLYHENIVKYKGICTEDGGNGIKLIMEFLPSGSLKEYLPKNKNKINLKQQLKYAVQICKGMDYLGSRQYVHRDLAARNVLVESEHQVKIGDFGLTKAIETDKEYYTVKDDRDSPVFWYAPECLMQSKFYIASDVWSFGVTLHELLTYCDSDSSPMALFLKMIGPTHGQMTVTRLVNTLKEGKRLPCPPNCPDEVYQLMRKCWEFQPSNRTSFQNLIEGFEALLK
Method: as §2, §3

JNK1 = JNK1 (Homo sapiens, UniProt P45983); experiment: Kinase inhibition profile; type: biochemical; details: 200 nM; read-out: inhibitory activity
Method: as §2, §3

JAK2 = JAK2 (Homo sapiens, UniProt O60674); experiment: Kinase inhibition profile; type: biochemical; details: 200 nM; read-out: inhibitory activity
Method: as §2, §3

BLK = BLK (Homo sapiens, UniProt P51451); experiment: Kinase inhibition profile; type: biochemical; details: 200 nM; read-out: inhibitory activity
Sequence of BLK (P51451 whole entry, species assumed): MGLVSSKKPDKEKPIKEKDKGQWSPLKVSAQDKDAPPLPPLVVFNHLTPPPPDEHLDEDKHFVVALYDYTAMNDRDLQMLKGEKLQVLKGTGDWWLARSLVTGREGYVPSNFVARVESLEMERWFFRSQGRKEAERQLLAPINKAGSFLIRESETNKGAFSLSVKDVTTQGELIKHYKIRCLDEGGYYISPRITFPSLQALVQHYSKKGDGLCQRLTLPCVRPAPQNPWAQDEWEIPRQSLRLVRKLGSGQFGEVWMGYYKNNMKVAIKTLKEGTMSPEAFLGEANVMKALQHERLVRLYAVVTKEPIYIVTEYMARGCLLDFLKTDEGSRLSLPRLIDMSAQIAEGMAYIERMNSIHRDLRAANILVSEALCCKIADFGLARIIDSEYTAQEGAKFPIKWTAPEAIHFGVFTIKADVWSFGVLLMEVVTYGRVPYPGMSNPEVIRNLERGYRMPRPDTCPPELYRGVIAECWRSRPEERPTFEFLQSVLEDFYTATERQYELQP
Method: as §2, §3

FGR = FGR (Homo sapiens, UniProt P09769); experiment: Kinase inhibition profile; type: biochemical; details: 200 nM; read-out: inhibitory activity
Method: as §2, §3

CHK2 = CHK2 (Homo sapiens, UniProt O96017); experiment: Kinase inhibition profile; type: biochemical; details: 200 nM; read-out: inhibitory activity
Sequence of CHK2 (O96017 whole entry, species assumed): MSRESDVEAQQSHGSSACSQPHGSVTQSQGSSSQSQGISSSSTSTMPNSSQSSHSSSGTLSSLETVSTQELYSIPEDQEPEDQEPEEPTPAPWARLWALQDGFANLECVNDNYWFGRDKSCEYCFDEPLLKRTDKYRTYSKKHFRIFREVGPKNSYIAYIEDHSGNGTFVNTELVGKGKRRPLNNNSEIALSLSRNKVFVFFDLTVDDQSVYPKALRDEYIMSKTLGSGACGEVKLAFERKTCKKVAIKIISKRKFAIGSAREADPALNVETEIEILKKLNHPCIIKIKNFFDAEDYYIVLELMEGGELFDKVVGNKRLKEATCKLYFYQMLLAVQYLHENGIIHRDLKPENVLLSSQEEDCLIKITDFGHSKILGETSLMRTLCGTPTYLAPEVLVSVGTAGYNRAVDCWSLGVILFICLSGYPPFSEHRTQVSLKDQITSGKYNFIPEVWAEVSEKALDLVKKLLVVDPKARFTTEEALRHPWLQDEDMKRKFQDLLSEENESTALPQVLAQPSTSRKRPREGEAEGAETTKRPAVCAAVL
Method: as §2, §3

CaMK2a = CaMK2a (Homo sapiens, UniProt Q9UQM7); experiment: Kinase inhibition profile; type: biochemical; details: 200 nM; read-out: inhibitory activity
Sequence of CaMK2a (Q9UQM7 whole entry): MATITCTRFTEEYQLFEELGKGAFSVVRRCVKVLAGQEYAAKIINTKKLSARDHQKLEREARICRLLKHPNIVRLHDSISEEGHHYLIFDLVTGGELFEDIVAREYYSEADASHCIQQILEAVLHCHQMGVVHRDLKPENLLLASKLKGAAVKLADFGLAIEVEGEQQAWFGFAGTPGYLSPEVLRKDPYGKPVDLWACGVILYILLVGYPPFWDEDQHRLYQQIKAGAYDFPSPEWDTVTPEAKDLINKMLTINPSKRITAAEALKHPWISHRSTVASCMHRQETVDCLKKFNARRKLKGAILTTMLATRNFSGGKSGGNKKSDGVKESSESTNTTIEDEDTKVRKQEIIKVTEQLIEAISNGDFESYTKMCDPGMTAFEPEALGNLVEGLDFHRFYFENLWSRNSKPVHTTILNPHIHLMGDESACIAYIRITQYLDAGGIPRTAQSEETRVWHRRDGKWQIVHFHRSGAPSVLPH
Method: as §2, §3

JAK3 = JAK3 (Homo sapiens, UniProt P52333); experiment: Kinase inhibition profile; type: biochemical; details: 200 nM; read-out: inhibitory activity
Method: as §2, §3

TrkB = TrkB (Homo sapiens, UniProt Q16620); experiment: Kinase inhibition profile; type: biochemical; details: 200 nM; read-out: inhibitory activity
Sequence of TrkB (Q16620 32-822, species assumed): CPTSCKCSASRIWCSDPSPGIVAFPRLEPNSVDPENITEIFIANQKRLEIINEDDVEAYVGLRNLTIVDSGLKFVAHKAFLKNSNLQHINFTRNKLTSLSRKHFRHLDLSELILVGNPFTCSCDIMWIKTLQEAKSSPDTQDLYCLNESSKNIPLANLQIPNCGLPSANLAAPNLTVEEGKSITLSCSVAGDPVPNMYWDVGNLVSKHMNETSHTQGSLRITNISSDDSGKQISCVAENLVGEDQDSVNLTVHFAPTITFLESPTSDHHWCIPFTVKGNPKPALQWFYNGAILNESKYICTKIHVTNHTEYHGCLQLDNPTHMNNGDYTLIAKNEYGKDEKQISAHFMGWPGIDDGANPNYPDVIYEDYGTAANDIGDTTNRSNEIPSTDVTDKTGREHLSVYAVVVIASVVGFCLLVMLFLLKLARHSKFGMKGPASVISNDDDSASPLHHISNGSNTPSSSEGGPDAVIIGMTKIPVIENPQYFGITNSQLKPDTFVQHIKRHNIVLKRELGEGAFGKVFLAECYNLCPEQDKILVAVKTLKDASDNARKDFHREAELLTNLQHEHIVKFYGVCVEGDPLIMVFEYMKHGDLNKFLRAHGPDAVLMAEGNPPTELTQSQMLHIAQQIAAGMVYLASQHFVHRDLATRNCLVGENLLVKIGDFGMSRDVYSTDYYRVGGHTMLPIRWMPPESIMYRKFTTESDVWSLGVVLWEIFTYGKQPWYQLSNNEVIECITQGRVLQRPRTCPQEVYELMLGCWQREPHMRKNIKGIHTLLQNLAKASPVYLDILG
Method: as §2, §3

[4] = animal model of pancreatic pain; cited from earlier work
[5] = PK study in mice, single dermal administration; type: in vivo
Method: as §1
Computer fitting of the data from each experimental group was then performed by NCOMP version 3.1 program (P. B. Laub et al., Journal of Pharmaceutical Sciences, 1996, 85(4):393-395). Values for area under the plasma concentration-time profile, T1/2, Tmax, Cmax, etc. were calculated by conventional formulas previously described (Gibaldi et al., Pharmacokinetics, 1982, Marcel Dekker, Inc., New York).

[6] = Acute single dose toxicity study in mice, oral administration; details: both sexes, Balb/c, mouse, in vivo
Method: Observations, which included clinical signs and behavioral changes, were performed every 30 minutes in the first 6 hour following administration, and twice a day during the following 7 days.
Similar results have been obtained following oral administration.

[7] = male, Balb/c, mouse, topical or ocular, 10 umol/kg, single dermal, plasma

In the case of `COC(=O)[C@]1(O)C[C@@H]2O[C@@]1(C)n1c3ccccc3c3c4c(c5c6ccccc6n2c5c31)C(=O)NC4` [Compound K-252a, K-252a], the psoriasis improvement [1] is given as “significantly improved”, the “inhibition of protein kinase C” value (protein kinase C (PKC)) is given as “strongly inhibits” and the concentration at 3 h ([2]; male, Balb/c, mouse, plasma, topical, 1.03 mg/kg) is given as 110 nM. The concentration at 3 h ([2]; read-out: Mean Plasma Concentration) was 110.19 nM, the concentration at 30 min ([3]; sacrificed after 30 minutes) was 23.3 ng/mL and the concentration at 60 min ([3]; sacrificed after 60 minutes) was 42.1 ng/mL. The inhibition at 0.2 µM (MER) was 80 to 90%, the inhibition at 0.2 µM (TYK2) was > 90% and the inhibition at 0.2 µM (JAK1) was 80 to 90%. The inhibition at 0.2 µM (JNK1) was > 90%, the inhibition at 0.2 µM (JAK2) was > 90% and the inhibition at 0.2 µM (BLK) was 80 to 90%. For the same molecule, the inhibition at 0.2 µM (FGR) was 80 to 90%, the inhibition at 0.2 µM (CHK2) was > 90% and the inhibition at 0.2 µM (CaMK2a) was 80 to 90%. For the same molecule, the inhibition at 0.2 µM (JAK3) was > 90%, the inhibition at 0.2 µM (TrkB) was > 90% and the hypersensitivity [4] was “attenuates hypersensitivity”. The half-life ([5]; male, Balb/c, mouse, plasma, topical or ocular, 5.075 mg/kg, single dermal administration, read-out: half-life) was 1.05 h, the concentration at 3 h ([5]; male, Balb/c, mouse, plasma, topical, single dermal administration at same dosage (2 μmol/kg) and time point (3 hours), value±95% CI) was 72.9 nM and the half-life ([5]; male, Balb/c, mouse, topical or ocular, 10 umol/kg, single dermal, 10 μmol/kg, plasma, read-out: Terminal T1/2) was 1.05 h. The AUC(0-inf) [5, 7] was 4.75 µM·h, the Cmax [5, 7] was 908 nM and the Tmax [5, 7] was 3 h. The “time detectable in plasma after administration” value ([5]; single dermal administration) was ≥ 9 h and the LD50 at 7 days [6] was 78 mg/kg.
